Reference: patent publication US10517803B2, “Individual's sensitivity to fluoride poisoning” (priority 2017, dated 2019)

Columns and labels:
people = conditions: most people; cited from earlier work
rats [1] = conditions: orally in rats; cited from earlier work
rats [2] = test: Median lethal dose (LD50) orally in rats; type: in vivo; conditions: extrapolated from oral rat LD50 to a 100 kg adult

## F [Fluoride]
people
  highest level of daily nutrient intake likely to pose no risk of adverse health effects: 10 mg/day

## F[Si-2](F)(F)(F)(F)F.[Na+].[Na+] [sodium fluorosilicate]
Rats [1]
  median lethal dose (LD50): 125 mg/kg
Rats [2]
  median lethal dose (LD50), corresponding amount for a 100 kg adult: 12.5 g
